Experimental data as given in US12528774B2, “Thiosemicarbazone compounds and uses thereof” (The Regents of the University of California, priority 2019, dated 2026).

What was measured:
[1] = test system: MIAPACA2 cells; test: Viability assay (trypan blue) in MIAPACA2 cells with co-treatments; format: cell-based
From the text: FIG. 1A: IC50 values in a panel of human and mouse prostate cancer (PC)(cell lines CF-2, LNCaP, 22Rv1, RM-1, MyC CaP); small cell lung carcinoma (SCLC)(cell lines NCI-H1963, NCI-H146, NCI-H526); pancreatic ductal adenocarcinoma (PDAC)(CFPAC1, SW1990, HS766T, PANC0203, PANC0813, ASPC1, HPAFII, PATU8902, PANC0327, PANC1, YAPC, L36PL, XWR200, HUPT4, A13A, SUIT2, DAN-G, BxPC3, HPAC, PSN1, SU8686, KP4662, MIAPACA2, PATU8988T); and leukemia (cell lines KG-1, TF-1, Jurkat, MOLT-4, p185-R, MV4-11) models treated with HCT13+Cu(II) (20 μM) for 72 h measured by CellTiterGlo. […] (mean±SD, n=2, one-way ANOVA corrected for multiple comparisons by Bonferroni adjustment, * P<0.05; **P<0.01; ***P<0.001).
FIGS. 2A-2I. FIG. 2A: representative immunoblots of MIAPACA2 PDAC cells treated as indicated for 24h. FIGS. 2B-2C: reactive oxygen species (ROS) measurement using CM-H2DCFDA staining after HCT13 (25 nM)+Cu(II) (20 μM) treatment for 24h; mean fluorescence intensity (MFI); mean±SD, n=2, Student t-test, ***P<0.001. FIG. 2D-2E: mitochondrial ROS detection using MitoSOX staining in MIAPACA2 PDAC cells treated with HCT-13 (25 nM)+Cu(II) (20 μM) for 24h; mean±SD, n=2, Student t-test, ***P<0.001. FIG. 2F: oxygen consumption rate (OCR) of MIAPACA2 PDAC cells treated with HCT-13 (25 nM)+Cu(II) (20 μM). FIG. 2G: OCR of isolated mitochondria measured with or without HCT-13 (25 nM)+Cu(II) (20 μM). FIG. 2H: viability of 143 BTK parental (wild type, WT) and po cells after 48 h of treatment with the indicated HCT-13 concentrations+Cu(II) (20 μM) treatment, assessed with trypan blue staining; mean±SD, n=2, Student t-test, ***P<0.001. FIG. 2I: cell viability by trypan blue staining in MIAPACA2 PDAC cells to interrogate the interaction of HCT-13 (25 nM)+Cu(II) (20 μM) with 2-DG (2 mM) for 48 h; mean±SD, n=2, Student t-test, ***P<0.001.
(§1) FIG. 5A: rescue of HCT-13 (25 nM)-induced cell death by Uridine (rU) (200 μM), Pyruvate (1 mM), or both following 48h of treatment. FIG. 5B: measurement of DHODH activity using recombinant DHODH assay following treatment with indicated perturbations for 2 min. DHODH inhibitor used: NITD-982-1 μM; HCT-13-100 nM, 1 μM, (100 nM data shown); Cu(II)—20 μM. (mean±SD, n=2, Student t-test, * P<0.05).
Viability/Apoptosis assay: Viable cells were measured by Trypan blue staining using vi-cell counter (Beckman Coulter, CA, USA). Apoptosis and cell death were assayed using Annexin V-FITC and PI according to manufacturer's instructions (FITC Annexin V Apoptosis Detection Kit, BD Sciences, #556570).
Viability/Apoptosis assay. Viable cells were measured by Trypan blue staining using a Vi-Cell counter (Beckman Coulter, CA, USA). […]

[2] = target: dihydroorotate dehydrogenase (DHODH) (Homo sapiens, UniProt Q02127); test: Recombinant DHODH activity assay; format: biochemical; conditions: HCT-13 100 nM, 1 μM; Cu(II) 20 μM
Protocol: as §1
DHODH activity: Recombinant protein was incubated in an aqueous solution (total volume, 1.0 mL) containing 500 μM DHO (Sigma, D1728), 200 mM K2CO3-HCl (pH 8.0), 0.2% triton x-100, and 100 μM coenzyme Q10 (Sigma, C9538) at 37° C. for 0, 15, 30, 45, or 60 min. An aliquot (100 μL) of the mixture of enzyme reaction mixture or cell/tissue lysate was mixed with 100 μL of 0, 0.5, or 1.0 μM orotic acid, 50 μL of H2O, 250 μL of 4.0 mM 4-TFMBAO (Sigma, 422231), 250 μL of 8.0 mM K3[Fe(CN)6] (Sigma, 244023), and 250 μL of 80 mM K2CO3 (Sigma, P5833) and then heated at 80° C. for 4.0 min. The reaction was stopped by cooling in an ice-water bath and the absorbance was measured with a spectrofluorometer (FP-6300 Jasco, Tokyo, Japan): excitation and emission wavelengths were 340 nm and 460 nm, respectively.

Sequence of dihydroorotate dehydrogenase (DHODH) (Q02127 whole entry, species assumed): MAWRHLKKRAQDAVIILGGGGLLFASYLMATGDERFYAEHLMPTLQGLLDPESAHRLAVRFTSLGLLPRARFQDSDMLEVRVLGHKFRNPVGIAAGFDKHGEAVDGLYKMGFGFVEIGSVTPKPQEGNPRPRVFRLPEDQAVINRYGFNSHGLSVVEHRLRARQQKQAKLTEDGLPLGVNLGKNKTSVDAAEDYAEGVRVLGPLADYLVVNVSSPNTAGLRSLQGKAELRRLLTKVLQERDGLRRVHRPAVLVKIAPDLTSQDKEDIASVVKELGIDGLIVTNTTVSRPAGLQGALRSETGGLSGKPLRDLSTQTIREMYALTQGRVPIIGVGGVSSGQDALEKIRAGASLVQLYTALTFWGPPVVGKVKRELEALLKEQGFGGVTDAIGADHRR

## CN(C)C(=S)N/N=C/c1nccc2cc(F)ccc12 (mixture of isomers) [HCT13, (E)-2-((6-Fluoroisoquinolin-1-yl)methylene)-N,N-dimethylhydrazine-1-carbothioamide and (Z)-2-((6-Fluoroisoquinolin-1-yl)methylene)-N,N-dimethylhydrazine-1-carbothioamide]
[1]; HCT13 25 nM + Cu(II) 20 μM, 24 h, BCPS 300 μM
  cytotoxicity in presence of bathocuproine disulfonate (BCPS): abrogated
[1]; HCT-13 25 nM + Cu(II) 20 μM, 2-DG 2 mM, 48 h
  activity with co-administration of 2-deoxyglucose (2-DG): significantly potentiated
[1]; HCT-13 25 nM, pyruvate 1 mM, 48 h
  cytotoxicity with pyruvate supplementation: not by pyruvate
[1]; HCT-13 25 nM, uridine 200 μM, 48 h
  cytotoxicity with uridine (rU) supplementation: partially abolished
[2]
  affinity for DHODH: did not demonstrate affinity
